Source: PMC5048659 (Arthritis Research & Therapy, 2016)
“Also recorded” adds a separate entry of the source.

Columns and labels:
PPARγ = target: T1, PPARγ (Homo sapiens, UniProt P37231); test: Human PPARγ luciferase reporter assay; assay type: cell-based; conditions: reporter cells, 24 hours
T1 sequence (P37231 238-505 limits assumed): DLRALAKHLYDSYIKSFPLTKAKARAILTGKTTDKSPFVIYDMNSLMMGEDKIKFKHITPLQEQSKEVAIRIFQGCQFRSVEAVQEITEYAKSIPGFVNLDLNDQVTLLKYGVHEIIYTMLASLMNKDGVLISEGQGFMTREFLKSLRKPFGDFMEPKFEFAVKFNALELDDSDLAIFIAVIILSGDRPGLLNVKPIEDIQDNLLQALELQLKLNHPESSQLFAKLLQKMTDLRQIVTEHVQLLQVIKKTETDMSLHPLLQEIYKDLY
Procedure: This assay was performed using nonhuman mammalian cells engineered to provide a PPARγ-responsive luciferase reporter gene and constitutive, high levels of PPARγ (Indigo Biosciences catalog number IB00101). Cells were incubated with compounds for 24 hours, and then luciferase activity was measured using a luminometer. Agonist activity was reported as fold activation over a vehicle control. A positive control agonist, rosiglitazone, was included in each batch run to verify cell integrity.

HepG2 cells = test: Mitochondrial toxicity assay (JC-1 mitochondrial membrane potential); assay type: cell-based, human
Procedure: HepG2 cells were counted via hemocytometer and diluted into equal volumes of serum-free Opti-MEM (Life Technologies) and JC-1 Staining Solution (Sigma catalog number CS0390) at 300,000 cells/mL in the presence of 2.5 μg/mL JC-1. Cells were incubated at 37 °C and 5 % CO2 for 20 minutes, rinsed once with Hank's Balanced Salt Solution, and resuspended to the same concentration in serum-free Opti-MEM. Cells were then seeded into 96-well black-sided clear-bottom tissue culture plates at 30,000 cells/100 μL/well. Three replicates per experimental condition group were used. Compound was added with the final dimethyl sulfoxide (DMSO) concentration at 0.5 %. After 2 hours at 37 °C and 5 % CO2, medium was aspirated and plates were read on a Gemini EM spectrofluorometer (Molecular Devices). Fluorescence of JC-1 monomers was monitored by excitation at 490 nm and emission at 530 nm (green) and of aggregates by excitation at 525 nm and emission at 590 nm (red). The ratio of J-aggregates to monomers was calculated, with a lower ratio indicating increased cell toxicity. The percent change in mitochondrial membrane potential (Ψm) was calculated as follows: […]

OAT4 = target: T2, OAT4 (Homo sapiens, UniProt Q9NSA0); test: OAT4 urate transport assay in stably transfected HEK293 cells; assay type: cell-based; conditions: 100 μM 14C-urate, 10 min, OAT4-551G cells; mean ± SEM, three experiments; read-out: Potency (IC50) against OAT4
T2 sequence (Q9NSA0 with tags, fused parts or gaps): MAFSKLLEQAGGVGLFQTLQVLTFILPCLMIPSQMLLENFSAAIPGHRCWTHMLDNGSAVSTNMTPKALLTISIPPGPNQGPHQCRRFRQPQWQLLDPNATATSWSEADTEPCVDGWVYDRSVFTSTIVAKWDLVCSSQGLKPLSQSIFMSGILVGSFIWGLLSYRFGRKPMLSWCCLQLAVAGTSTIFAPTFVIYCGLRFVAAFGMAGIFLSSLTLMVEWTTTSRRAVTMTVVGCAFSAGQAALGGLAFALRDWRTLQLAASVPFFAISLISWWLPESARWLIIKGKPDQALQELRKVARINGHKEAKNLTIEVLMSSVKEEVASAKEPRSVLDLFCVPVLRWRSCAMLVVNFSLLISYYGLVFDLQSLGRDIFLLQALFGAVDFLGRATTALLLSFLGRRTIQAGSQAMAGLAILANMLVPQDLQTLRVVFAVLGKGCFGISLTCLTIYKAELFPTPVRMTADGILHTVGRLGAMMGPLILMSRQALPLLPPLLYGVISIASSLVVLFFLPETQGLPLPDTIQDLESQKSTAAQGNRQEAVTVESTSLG
Procedure: Stably transfected HEK293-OAT4-551G cells were used for OAT4 transport activity assays, which were grown for several weeks in media (DMEM with 10 % fetal bovine serum and 1 mM sodium pyruvate) containing 500 μg/mL geneticin sulfate. An isolated clone with high OAT4 activity was selected for activity assays. One day prior to the assay, cells were plated at 200,000 cells/well into each well of white, clear bottom poly-D-lysine-coated assay plates (BD Biosciences).
The cells were assayed on the following day. […] The free urate was removed by aspiration and the cells rinsed three times in 150 μL wash buffer. The cells were then subjected to liquid scintillation counting to measure transported urate. […] Each point represents the mean and standard error of the mean (SEM) from triplicates.

[1] = cited from earlier work
GLUT9 (SLC2A9v2/GLUT9ΔN) = target: T3, GLUT9 (SLC2A9v2/GLUT9ΔN) (Homo sapiens, UniProt Q9NRM0); test: GLUT9 urate transport in cRNA-injected oocytes; assay type: cell-based
T3 construct: expressed in transfected cells
T3 sequence (Q9NRM0 1-511 isoform Q9NRM0-2): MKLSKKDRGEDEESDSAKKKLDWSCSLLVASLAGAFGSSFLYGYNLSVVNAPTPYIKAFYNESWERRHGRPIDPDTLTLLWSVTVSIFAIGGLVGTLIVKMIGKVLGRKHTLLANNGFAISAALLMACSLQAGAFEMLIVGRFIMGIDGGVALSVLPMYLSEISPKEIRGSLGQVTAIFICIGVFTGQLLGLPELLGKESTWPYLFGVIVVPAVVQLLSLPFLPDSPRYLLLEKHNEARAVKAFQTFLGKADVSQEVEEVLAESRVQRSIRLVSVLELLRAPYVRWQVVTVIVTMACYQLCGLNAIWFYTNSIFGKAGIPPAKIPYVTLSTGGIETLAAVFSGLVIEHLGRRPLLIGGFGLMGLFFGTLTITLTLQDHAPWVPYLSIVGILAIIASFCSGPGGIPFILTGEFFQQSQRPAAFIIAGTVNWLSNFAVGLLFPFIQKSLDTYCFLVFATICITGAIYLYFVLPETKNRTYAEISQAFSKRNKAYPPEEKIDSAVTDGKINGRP
Procedure: For GLUT9, SLC2A9v2/GLUT9ΔN in pCMV6/neo was linearized with XmaI and NotI and cRNA transcribed using the mMessage mMachine T7 kit (Ambion). Oocytes were injected with either water or 25 ng cRNA and incubated for 3 to 5 days in ND96 buffer. For each point, 10 oocytes were incubated with 100 μM ^14C-uric acid in ND96 buffer with and without test compounds at room temperature for 60 minutes. The oocytes were then washed three to four times in ice-cold ND96 buffer and lysed prior to scintillation counting.

PPARγ activation (PPARγ; at 300 μM) | PPARγ activation (PPARγ; up to 100 μM) | Structure (SMILES) | Mitochondrial toxicity (HepG2 cells; HepG2, up to 300 μM) | PPARγ activation (PPARγ; at 30 μM) | Lowest concentration reducing mitochondrial membrane potential (HepG2 cells; HepG2, 2 hours) [µM] | EC50 (HepG2 cells; Homo sapiens, HepG2, 2 hours, read-out: Half maximal effective concentration for reduction of mitochondrial membrane potential) [µM] | IC50 (OAT4) [µM] | Estimated plasma concentration [1] [µM] | Urinary excretion [1] [%] | IC50 (GLUT9 (SLC2A9v2/GLUT9ΔN); 100 μM 14C-uric acid, 60 min, read-out: Potency against GLUT9) [µM] | Effect on GLUT9 urate transport (GLUT9 (SLC2A9v2/GLUT9ΔN); compound at up to 100 μM)
slight PPARγ activation | no activation | CCCN(CCC)S(=O)(=O)c1ccc(C(=O)O)cc1 [Probenecid] | no mitochondrial toxicity | – | – | – | – | – | – | – | –
– | – | CCc1oc2ccccc2c1C(=O)c1cc(Br)c(O)c(Br)c1 [Benzbromarone] | – | strongly activated | 0.4 | 1.36 | 3.19 ± 1.04 | 0.016 to 0.16 | 6 | ~100 | only weak activity; also recorded: inhibited
